Results published in patent US20170248586A1, “Marker For Depression, Assay Method, Method For Determining Depression, Screening Method For Antidepressants, And Kit” (MEIJO UNIVERSITY, priority 2013, published 2017).

Key:
wild-type C57BL/6J mouse = assay: Forced swim test in control mice; assay type: in vivo; conditions: immobility measured for 10 minutes, 0 mg/kg group 203 seconds
Procedure: (§1) Experimental Equipment and Procedure: A water bath (diameter 15 cm×height 20 cm) filled with water (water temperature: about 22° C., depth: 13 cm) was used as experimental equipment. A wild-type C57BL/6J mouse as a control or a model mouse was placed in the water bath, and just after that, immobility time was measured by Scanet MV-10 AQ (Brain Science Idea, Osaka, Japan) every 1 minute for 10 minutes.
(§2) Thirty minutes before the test, 10 mg/kg of desipramine (Sigma, St. Louis, Mo.) or 3 mg/kg of atomoxetine (LKT Laboratories, Inc, MN) dissolved in normal saline was intraperitoneally administered. As a control, the solvent was intraperitoneally administered.
(§3) In Examples, MAGE-D1 gene-deficient mice were used as animal models. The forced swim test was used for evaluating depression-like behavior. In the forced swim test, a mouse is placed in a narrow cylinder filled with water so as to recognize the impossibility of escape therefrom, and the time that the mouse floats on water without moving is evaluated as decreased motivation. […] Each administration test was performed in triplicate, and therefore graphs in FIGS. 1A and 1B show average values.

[1] = system: MAGE-D1 gene-deficient mice; assay: Forced swim test, evaluation of depression-like behavior in model mice; assay type: in vivo, mouse; conditions: for average value of immobility time: immobility measured for 10 minutes, 0 mg/kg group 425 seconds; for depression-like behavior in model mice: FIG. 1A desipramine, FIG. 1B atomoxetine; for increase in immobility time of model mice in the forced swim test (result in words): desipramine 10 mg/kg or atomoxetine 3 mg/kg i.p., FIGS. 1A and 1B
From the text: A targeting vector (Stratagene: pBlueScript) for homologous recombination between a MAGE-D1 gene (Gene bank: NM_019791.2) exon and a drug (G418)-resistant gene (GenBank: U00004.1) was electroporated into embryo stem (ES) cells derived from 129Svj mice (supplied from National Center for Geriatrics and Gerontology), and drug-resistant colonies were selected. A homologous recombinant was identified from the selected drug-resistant colonies by Southern blotting. The identified target homologous recombinant ES cell clone was injected into C57BL/6J mouse blastocyst-stage embryos to generate chimeric mice. The chimeric mice were mated with wild-type C57BL/6J mice to generate F1 heterozygous MAGE-D1 gene-deficient mice. The heterozygous MAGE-D1 gene-deficient mice were mated with wild-type C57BL/6J mice up to the F10 generation. The mice having a 99.9% C57BL/6J genetic background were used (When mating with a C57BL/6J mouse is performed once, about half of the genes of a newborn mouse are derived from the C57BL/6J mouse used for mating. That is, it is considered that when mating with a C57BL/6J mouse is performed n times, about [1−(½)^n+1]×100% of genes are derived from the C57BL/6J mouse.) The mice having such a genetic background were defined as MAGE-D1 gene-deficient mice (hereinafter, also referred to as model mice) and used in the following tests.
as §1, §2, §3

[2] = 3 mg/kg intraperitoneally 30 min before test
[3] = 10 mg/kg intraperitoneally 30 min before test

Structure (SMILES)	average value of immobility time (wild-type C57BL/6J mouse; [2])	average value of immobility time [1, 2]	depression-like behavior in model mice [1]	increase in immobility time of model mice in the forced swim test (result in words) [1]	average value of immobility time (wild-type C57BL/6J mouse; [3])	average value of immobility time [1, 3]
CNCC[C@@H](Oc1ccccc1C)c1ccccc1 [atomoxetine]	205 s	283 s	relieved	significantly reduced		
CNCCCN1c2ccccc2CCc2ccccc21 [desipramine]			relieved	significantly reduced	215 s	334 s
